Values quoted from earlier work, collected in US8028928B2, “Spreader apparatus for sand based formulations” (priority 2007, dated 2011).

System: S. homoeocarpa
Details: bent grass blend Cato:Crenshaw (50:50); high disease pressure

CSC(=O)c1cccc2nnsc12 [ASM, acibenzolar-5-methyl]
Reduction of number of S. homoeocarpa infection centers: 38%
